Measurements: US20230125380A1, “Topical Compositions Comprising IRAK4 Inhibitors for Use in Treating Dermatological Conditions Characterised by Inflammation” (Dermira, Inc., priority 2019, published 2023)

Experiments:
[1] = system: human surgical skin (skin resident immune cells), LPS; assay: skin Resident Immune Cell Assay (sRICA), topical screening, TNFα protein expression; assay type: cell-based; conditions: mean TNFα level in LPS treated samples set to 100%
Experimental: A skin Resident Immune Cell Assay (sRICA) was used to test compounds for reduction of inflammation. In this model, human surgical skin waste was cultured in a transwell system, with the dermis in contact with cell culture media and the stratum corneum exposed to air. To perform the assay, each human skin sample was defatted and dermatomed to 750 μm. Next, 8 mm punch biopsies were obtained and placed in a membrane transwell. The transwells were inserted into culture wells with complete media, and a cocktail of cytokines and antibodies were added to promote skin resident immune cell polarization. The transwells were treated with LPS as a positive control, a vehicle as a negative control, and various dual IRAK/TrkA inhibitors. TNFα protein expression was measured and the mean TNFa protein level in the LPS treated samples was set to 100%.
Overall results for all tested compounds are summarized below in Table 1. Results are expressed as a percentage of TNFα expression relative to the LPS treated sample.

[2] = system: rosacea lesional (LS) skin; assay: MesoScale Discovery (MSD) immunoassay of treated lesional papulopustular rosacea biopsies; assay type: cell-based, human
Experimental: (§1) Five patients with mild-moderate, untreated, papulopustular rosacea (PPR) were enrolled and completed the study. Each patient donated 3 punch biopsies: 1 non-lesional (NL) and 2 lesional (LS) papules. Each biopsy was bisected, resulting in a total of 6 biopsy pieces. NL tissue was left untreated. LS tissue was either left untreated (vehicle), treated with a dual IRAK/TrkA inhibitor according to the present disclosure (1 uM or […]) or clobetasol (1 uM). Tissue was cultured in media at 37 C, 5% CO2 for 24 hours. After culture, the tissue was submerged in RNAlater for subsequent RNA isolation and RNA seq, and conditioned cell media was collected into 2×500 ul aliquots for proteomic analysis.
Next, the protein expression results obtained using the OLink platform were verified using MesoScale Discovery (MSD). MSD involves coating of carbon electrodes with multiple capture antibodies each coated onto discrete spots in the same plate, and is a multiplex platform that allows for absolute quantification of protein expression, as measured in pg/mL. For MSD quantification, 150 μl of conditioned cell media was analyzed using MSD platform using the human Cytokine 30-plex kit:
The protein expression analysis was repeated using the MSD platform.

[3] = system: rosacea lesional (LS) skin; assay: OLink proteomics of treated lesional papulopustular rosacea biopsies; assay type: cell-based, human; conditions: LS rosacea biopsy
Experimental: as §1
Proteomic analysis included use of the OLink platform. OLink proteomics, includes immunoassay, extension, preamplification, and detection by microfluidic qPCR, and has a high multiplex ability, but not absolute quantification of protein (only relative expression).
For the OLink proteomics platform, 40 μl of conditioned cell media was sent to OLINK proteomics for evaluation on their human Inflammation Panel (92 proteins):
Protein expression was measured from NL samples, untreated LS samples, and LS samples treated with the compound of Formula (Ia) at 1 μM, the compound of Formula (Ia) at 0.5 μM, or clobetasol at 1 μM. […] CXCL1, β-NGF, LIF, TGF-alpha, IL-8, and IL-6 are all proteins that have reduced expression in NL compared to LS samples.

[4] = system: rosacea lesional (LS) skin; assay: RNAseq of treated lesional papulopustular rosacea biopsies; assay type: cell-based, human; conditions: LS rosacea biopsy, 24 hours culture, 1 μM and 0.5 μM
Experimental: Five patients with mild-moderate, untreated, papulopustular rosacea (PPR) were enrolled and completed the study. Each patient donated 3 punch biopsies: 1 non-lesional (NL) and 2 lesional (LS) papules. Each biopsy was bisected, resulting in a total of 6 biopsy pieces. NL tissue was left untreated. […] Tissue was cultured in media at 37 C, 5% CO2 for 24 hours. After culture, the tissue was submerged in RNAlater for subsequent RNA isolation and RNA seq, and conditioned cell media was collected into 2×500 ul aliquots for proteomic analysis.
MMP-1 results are shown in FIG. 4A (RNAseq) and FIG. 4B (OLink); CXCL5 results are shown in FIG. 5A (RNAseq) and FIG. 5B (OLink); and IL-1(3 results are shown in FIG. 6A (RNAseq) and FIG. 6B (OLink).

[5] = 24 hours following treatment, 1 μM and 0.5 μM

## C=C(CC1=CC(C)C=C1C1CCC(CCC)C1=C)C1=CCC(c2cccc(CCC(C)(C)C)c2)=C1 (centres unmarked)
[1]
  TNFα Protein Expression (% relative to positive control): 64.03%

## Cn1cc(NC(=O)c2coc(-c3ccnc(NCC(F)F)c3)n2)c(N2CCN(CCO)C2=O)n1
[1]
  TNFα Protein Expression (% relative to positive control): 72.75%

## CC1C=C(CC(=O)c2coc(-c3ccnc(NCC(F)(F)F)c3)c2)C(C2CC(C)[C@H](C)C2=O)=C1 (some centres unmarked)
[1]
  TNFα Protein Expression (% relative to positive control): 67.49%

## Cn1cc(NC(=O)c2coc(-c3ccnc(NCC(F)(F)F)c3)n2)c(N2CCNC2=O)n1
[1]
  TNFα Protein Expression (% relative to positive control): 59.13%

## C[C@H]1CCN(c2nn(C)cc2NC(=O)c2coc(-c3ccnc(NCC(F)(F)F)c3)n2)C1=O
[1]
  TNFα Protein Expression (% relative to positive control): 92.45%

## Cn1cc(NC(=O)c2coc(-c3ccnc(NCC4CC4)c3)n2)c(N2CCN(CCO)C2=O)n1
[1]
  TNFα Protein Expression (% relative to positive control): 74.41%

## CC(C)N1CCN(c2nn(C)cc2NC(=O)c2coc(-c3ccnc(NCC(F)(F)F)c3)n2)C1=O
[1]
  TNFα Protein Expression (% relative to positive control): 90.44%

## CN(C)CC1CN(c2nn(C)cc2NC(=O)c2coc(-c3ccnc(NCC(F)(F)F)c3)n2)C(=O)C1(C)C (centres unmarked)
[1]
  TNFα Protein Expression (% relative to positive control): 86.94%

## CC(C)CN1CCN(c2nn(C)cc2NC(=O)c2coc(-c3ccnc(NCC(F)(F)F)c3)n2)C1=O
[1]
  TNFα Protein Expression (% relative to positive control): 89.24%

## Cn1cc(NC(=O)c2coc(-c3ccnc(NCC(F)(F)F)c3)n2)c(N2CC(CNC3CC3)C(C)(C)C2=O)n1 (centres unmarked)
[1]
  TNFα Protein Expression (% relative to positive control): 72.95%

## CC1(C)CCN(c2nn(C3COC3)cc2NC(=O)c2coc(-c3ccnc(NCC(F)(F)F)c3)n2)C1=O
[1]
  TNFα Protein Expression (% relative to positive control): 97.84%

## Cn1cc(NC(=O)c2coc(-c3ccnc(NCC(F)(F)F)c3)n2)c(N2CCN(CCO)C2=O)n1 [Formula (Ia)]
[2]; compared with NL and LS profiles
  protein expression profile (MSD): more similar to the NL profile versus the LS profile
[2]; p=0.002
  IL-10 protein expression (MSD): decreased expression
[2]; p=0.056
  IL-8 protein expression (MSD): decreased expression
[2]; p=0.09
  MCP-1 protein expression (MSD): decreased expression
[2]; p=0.12
  IL-4 protein expression (MSD): decreased expression
[2]; p=0.13
  IL-6 protein expression (MSD): decreased expression
[2]; p=0.2
  IL-5 protein expression (MSD): decreased expression
[3]; 24 hours following treatment
  CXCL6 protein expression (OLink): decreased expression
  IL-24 protein expression (OLink): decreased expression
  MCP-1 protein expression (OLink): decreased expression
  NRTN protein expression (OLink): decreased expression
[3]; [5]
  CXCL1 protein expression (OLink): statistically significant decrease in expression
  IL-6 protein expression (OLink): statistically significant decrease in expression
  IL-8 protein expression (OLink): statistically significant decrease in expression
  LIF protein expression (OLink): statistically significant decrease in expression
  TGF-alpha protein expression (OLink): statistically significant decrease in expression
  β NGF protein expression (OLink): statistically significant decrease in expression
[3]; 24 hours, 1 μM and 0.5 μM
  CXCL5 protein expression (OLink): downregulated
  MMP-1 protein expression (OLink): downregulated
[4]
  CXCL5 RNA expression (RNAseq): significantly downregulated
  IL-1β RNA expression (RNAseq): significantly downregulated
  MMP-1 RNA expression (RNAseq): significantly downregulated

## CNCC1CN(c2nn(C)cc2NC(=O)c2coc(-c3ccnc(NCC(F)(F)F)c3)n2)C(=O)C1(C)C (centres unmarked) [drawing 29]
[1]
  TNFα Protein Expression (% relative to positive control): 92.45%

## CNCC1CN(c2nn(C)cc2NC(=O)c2coc(-c3ccnc(NCC(F)(F)F)c3)n2)C(=O)C1(C)C (centres unmarked) [drawing 30]
[1]
  TNFα Protein Expression (% relative to positive control): 93.64%
